Experimental data as given in patent US12157741B2, “Macrocyclic inhibitors of DYRK1A” (DANA-FARBER CANCER INSTITUTE, INC., priority 2018, dated 2024).
Where two headings read alike, the source gives them in different places.

Legend:
Type in all cases: binding
[1] = target: various enzymes (Homo sapiens, UniProt O00506); conditions: compound 1 uM
Protocol: (§1) Ambit profiling was conducted in accordance with the manufacturer's instructions.

[2] = target: various enzymes (Homo sapiens, UniProt O43353); conditions: compound 1 uM
Protocol: as §1

[3] = target: various enzymes (Homo sapiens, UniProt P00533, L861Q)
Protocol: as §1

[4] = target: various enzymes (Homo sapiens, UniProt P07948); conditions: compound 1 uM
Protocol: as §1

[5] = target: various enzymes (Homo sapiens, UniProt P07949, M918T)
Protocol: as §1

[6] = target: various enzymes (Homo sapiens, UniProt P08581); conditions: compound 1 uM
Protocol: as §1

[7] = target: various enzymes (Homo sapiens, UniProt P10721, T670I/V559D)
Protocol: as §1

[8] = target: T1, various enzymes (Homo sapiens, UniProt P29323); conditions: compound 1 uM
T1 sequence (P29323 19-1055): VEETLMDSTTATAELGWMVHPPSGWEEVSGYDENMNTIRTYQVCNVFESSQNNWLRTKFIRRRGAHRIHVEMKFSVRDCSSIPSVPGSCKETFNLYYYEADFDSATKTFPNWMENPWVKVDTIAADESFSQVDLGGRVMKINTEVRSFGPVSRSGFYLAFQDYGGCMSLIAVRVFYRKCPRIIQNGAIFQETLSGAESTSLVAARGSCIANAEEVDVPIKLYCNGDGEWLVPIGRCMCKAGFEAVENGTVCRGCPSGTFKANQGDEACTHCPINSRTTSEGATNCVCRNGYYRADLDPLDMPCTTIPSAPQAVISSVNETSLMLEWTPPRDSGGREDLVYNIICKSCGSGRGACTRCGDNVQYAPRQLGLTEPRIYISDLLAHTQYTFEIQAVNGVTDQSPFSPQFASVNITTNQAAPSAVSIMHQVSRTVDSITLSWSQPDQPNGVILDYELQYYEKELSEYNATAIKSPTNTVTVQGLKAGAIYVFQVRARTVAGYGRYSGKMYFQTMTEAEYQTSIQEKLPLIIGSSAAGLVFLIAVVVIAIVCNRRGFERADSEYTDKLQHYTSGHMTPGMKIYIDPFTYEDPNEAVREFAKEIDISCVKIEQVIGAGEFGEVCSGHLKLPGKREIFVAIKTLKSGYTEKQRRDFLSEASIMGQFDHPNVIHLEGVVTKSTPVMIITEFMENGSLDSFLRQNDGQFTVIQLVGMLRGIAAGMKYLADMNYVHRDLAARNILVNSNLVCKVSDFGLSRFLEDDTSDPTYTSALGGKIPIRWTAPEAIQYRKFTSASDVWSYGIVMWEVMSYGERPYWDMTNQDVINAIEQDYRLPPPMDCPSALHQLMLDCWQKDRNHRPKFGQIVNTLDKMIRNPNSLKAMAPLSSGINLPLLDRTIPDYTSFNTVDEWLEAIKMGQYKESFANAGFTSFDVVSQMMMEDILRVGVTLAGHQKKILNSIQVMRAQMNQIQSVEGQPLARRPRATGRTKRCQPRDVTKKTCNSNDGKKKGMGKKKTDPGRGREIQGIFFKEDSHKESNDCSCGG
Protocol: as §1

[9] = target: various enzymes (Homo sapiens, UniProt P35968); conditions: compound 1 uM
Protocol: as §1

[10] = target: various enzymes (Homo sapiens, UniProt P36888, R834Q)
Protocol: as §1

[11] = target: various enzymes (Homo sapiens, UniProt P42338); conditions: compound 1 uM
Protocol: as §1

[12] = target: various enzymes (Homo sapiens, UniProt P42679); conditions: compound 1 uM
Protocol: as §1

[13] = target: various enzymes (Homo sapiens, UniProt P53350); conditions: compound 1 uM
Protocol: as §1

[14] = target: various enzymes (Homo sapiens, UniProt P57058); conditions: compound 1 uM
Protocol: as §1

[15] = target: various enzymes (Homo sapiens, UniProt Q00535); conditions: compound 1 uM
Protocol: as §1

[16] = target: various enzymes (Homo sapiens, UniProt Q05397); conditions: compound 1 uM
Protocol: as §1

[17] = target: various enzymes (Homo sapiens, UniProt Q12866); conditions: compound 1 uM
Protocol: as §1

[18] = target: various enzymes (Homo sapiens, UniProt Q13470); conditions: compound 1 uM
Protocol: as §1

[19] = target: various enzymes (Homo sapiens, UniProt Q15375); conditions: compound 1 uM
Protocol: as §1

[20] = target: various enzymes (Homo sapiens, UniProt Q5S007, G2019S)
Protocol: as §1

[21] = target: various enzymes (Homo sapiens, UniProt Q7KZI7); conditions: compound 1 uM
Protocol: as §1

[22] = target: various enzymes (Homo sapiens, UniProt Q8TBX8); conditions: compound 1 uM
Protocol: as §1

[23] = target: various enzymes (Homo sapiens, UniProt Q8TD19); conditions: compound 1 uM
Protocol: as §1

[24] = target: various enzymes (Homo sapiens, UniProt Q9NRP7); conditions: compound 1 uM
Protocol: as §1

Sequence of various enzymes (Homo sapiens, UniProt P42679) (P42679 whole entry): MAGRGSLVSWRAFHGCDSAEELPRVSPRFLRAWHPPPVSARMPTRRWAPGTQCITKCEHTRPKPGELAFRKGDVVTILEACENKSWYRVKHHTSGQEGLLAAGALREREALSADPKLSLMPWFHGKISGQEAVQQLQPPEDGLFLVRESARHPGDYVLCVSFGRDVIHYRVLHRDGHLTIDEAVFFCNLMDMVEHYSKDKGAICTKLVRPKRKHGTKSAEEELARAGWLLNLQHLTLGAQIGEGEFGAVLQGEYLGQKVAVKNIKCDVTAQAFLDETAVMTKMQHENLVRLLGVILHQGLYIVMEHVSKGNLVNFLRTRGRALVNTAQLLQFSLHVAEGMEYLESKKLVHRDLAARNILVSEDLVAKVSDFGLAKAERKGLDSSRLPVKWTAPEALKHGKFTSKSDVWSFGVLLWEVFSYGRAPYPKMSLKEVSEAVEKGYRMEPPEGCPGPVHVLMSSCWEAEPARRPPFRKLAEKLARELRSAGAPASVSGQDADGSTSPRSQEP
Sequence of various enzymes (Homo sapiens, UniProt P53350) (P53350 whole entry): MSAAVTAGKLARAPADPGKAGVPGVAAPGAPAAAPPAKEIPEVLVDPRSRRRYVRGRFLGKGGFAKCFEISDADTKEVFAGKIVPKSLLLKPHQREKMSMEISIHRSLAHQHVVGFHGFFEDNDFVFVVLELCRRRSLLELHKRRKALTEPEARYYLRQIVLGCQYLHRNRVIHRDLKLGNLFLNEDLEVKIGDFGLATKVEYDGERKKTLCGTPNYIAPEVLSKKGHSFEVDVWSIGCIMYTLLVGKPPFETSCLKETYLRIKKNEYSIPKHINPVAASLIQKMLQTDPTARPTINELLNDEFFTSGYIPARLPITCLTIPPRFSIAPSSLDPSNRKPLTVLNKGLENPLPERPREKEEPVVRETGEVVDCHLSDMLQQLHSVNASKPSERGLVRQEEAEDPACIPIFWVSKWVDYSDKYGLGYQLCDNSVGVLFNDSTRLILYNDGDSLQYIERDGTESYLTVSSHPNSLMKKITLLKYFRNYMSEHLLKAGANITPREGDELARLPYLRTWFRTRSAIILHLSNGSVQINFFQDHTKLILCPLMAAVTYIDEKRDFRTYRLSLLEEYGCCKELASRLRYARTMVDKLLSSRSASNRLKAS
Sequence of various enzymes (Homo sapiens, UniProt P35968) (P35968 20-1356): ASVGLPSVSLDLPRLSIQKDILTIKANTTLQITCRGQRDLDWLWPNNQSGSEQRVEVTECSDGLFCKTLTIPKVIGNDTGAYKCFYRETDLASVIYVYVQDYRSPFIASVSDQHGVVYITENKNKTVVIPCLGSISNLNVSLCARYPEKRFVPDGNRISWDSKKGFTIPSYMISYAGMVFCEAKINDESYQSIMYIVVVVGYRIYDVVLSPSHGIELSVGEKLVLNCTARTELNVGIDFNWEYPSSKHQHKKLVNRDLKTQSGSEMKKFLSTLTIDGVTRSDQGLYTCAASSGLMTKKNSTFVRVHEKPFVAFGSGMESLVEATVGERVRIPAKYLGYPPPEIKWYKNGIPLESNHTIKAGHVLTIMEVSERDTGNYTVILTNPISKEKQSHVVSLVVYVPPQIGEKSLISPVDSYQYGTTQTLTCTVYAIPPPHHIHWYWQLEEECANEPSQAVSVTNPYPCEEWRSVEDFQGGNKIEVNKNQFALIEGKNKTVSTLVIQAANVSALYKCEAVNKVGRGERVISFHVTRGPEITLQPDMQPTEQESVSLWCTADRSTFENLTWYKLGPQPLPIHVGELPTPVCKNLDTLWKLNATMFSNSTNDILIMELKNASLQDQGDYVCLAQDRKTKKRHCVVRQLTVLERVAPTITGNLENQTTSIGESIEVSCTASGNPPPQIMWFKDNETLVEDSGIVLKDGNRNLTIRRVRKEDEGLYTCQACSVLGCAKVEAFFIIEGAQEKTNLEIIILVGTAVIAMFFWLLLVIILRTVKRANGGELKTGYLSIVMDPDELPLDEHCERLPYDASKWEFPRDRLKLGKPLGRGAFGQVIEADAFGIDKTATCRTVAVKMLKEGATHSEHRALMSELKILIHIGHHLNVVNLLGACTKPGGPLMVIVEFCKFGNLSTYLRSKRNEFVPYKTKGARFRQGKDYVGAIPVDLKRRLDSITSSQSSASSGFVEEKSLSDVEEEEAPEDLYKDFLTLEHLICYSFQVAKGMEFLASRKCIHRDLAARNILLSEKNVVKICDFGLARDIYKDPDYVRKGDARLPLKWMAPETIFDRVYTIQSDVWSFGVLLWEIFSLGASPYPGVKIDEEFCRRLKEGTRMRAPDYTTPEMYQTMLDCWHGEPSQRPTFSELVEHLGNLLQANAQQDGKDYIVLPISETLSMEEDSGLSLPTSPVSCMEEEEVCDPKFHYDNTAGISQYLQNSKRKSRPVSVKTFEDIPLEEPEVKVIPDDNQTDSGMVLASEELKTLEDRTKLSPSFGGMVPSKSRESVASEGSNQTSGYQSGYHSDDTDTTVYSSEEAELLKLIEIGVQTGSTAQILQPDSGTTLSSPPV
Sequence of various enzymes (Homo sapiens, UniProt Q8TBX8) (Q8TBX8 whole entry): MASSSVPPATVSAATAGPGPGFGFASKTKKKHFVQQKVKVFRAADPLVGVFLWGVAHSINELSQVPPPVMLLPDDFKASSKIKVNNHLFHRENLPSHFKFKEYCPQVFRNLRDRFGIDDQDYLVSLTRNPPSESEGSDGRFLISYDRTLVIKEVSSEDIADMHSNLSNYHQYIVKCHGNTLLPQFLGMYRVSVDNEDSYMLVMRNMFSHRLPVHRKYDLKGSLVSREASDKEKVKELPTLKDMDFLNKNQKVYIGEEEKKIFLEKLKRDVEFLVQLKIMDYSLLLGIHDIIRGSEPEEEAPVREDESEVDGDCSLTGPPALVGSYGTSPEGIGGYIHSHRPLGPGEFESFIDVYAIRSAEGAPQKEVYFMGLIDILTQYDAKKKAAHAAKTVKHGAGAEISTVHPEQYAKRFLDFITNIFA
Sequence of various enzymes (Homo sapiens, UniProt Q8TD19) (Q8TD19 whole entry): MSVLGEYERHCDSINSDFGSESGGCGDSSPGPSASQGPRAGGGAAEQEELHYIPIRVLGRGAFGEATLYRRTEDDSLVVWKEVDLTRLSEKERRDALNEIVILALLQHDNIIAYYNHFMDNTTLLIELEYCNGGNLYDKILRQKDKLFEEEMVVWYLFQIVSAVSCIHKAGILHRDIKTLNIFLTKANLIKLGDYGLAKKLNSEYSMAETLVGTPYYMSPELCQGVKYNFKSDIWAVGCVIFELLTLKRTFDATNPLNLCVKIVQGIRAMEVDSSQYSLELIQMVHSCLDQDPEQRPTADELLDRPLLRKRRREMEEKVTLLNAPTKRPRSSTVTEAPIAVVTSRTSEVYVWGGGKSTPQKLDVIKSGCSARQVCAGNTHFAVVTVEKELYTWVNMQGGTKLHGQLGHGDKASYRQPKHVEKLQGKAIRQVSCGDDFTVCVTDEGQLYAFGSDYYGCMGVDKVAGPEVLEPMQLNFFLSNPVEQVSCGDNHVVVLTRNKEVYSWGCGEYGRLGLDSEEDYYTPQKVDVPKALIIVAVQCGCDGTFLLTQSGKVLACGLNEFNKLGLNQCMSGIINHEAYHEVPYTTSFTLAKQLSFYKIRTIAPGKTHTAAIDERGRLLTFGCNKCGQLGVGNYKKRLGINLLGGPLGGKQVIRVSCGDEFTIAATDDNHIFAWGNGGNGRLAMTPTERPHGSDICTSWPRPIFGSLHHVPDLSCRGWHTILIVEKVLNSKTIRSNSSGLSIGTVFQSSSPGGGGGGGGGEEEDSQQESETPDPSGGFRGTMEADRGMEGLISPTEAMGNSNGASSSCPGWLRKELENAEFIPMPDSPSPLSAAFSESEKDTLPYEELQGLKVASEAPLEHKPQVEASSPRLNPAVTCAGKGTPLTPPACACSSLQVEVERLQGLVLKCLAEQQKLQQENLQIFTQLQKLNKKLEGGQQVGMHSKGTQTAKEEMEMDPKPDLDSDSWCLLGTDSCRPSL
Sequence of various enzymes (Homo sapiens, UniProt Q05397) (Q05397 whole entry): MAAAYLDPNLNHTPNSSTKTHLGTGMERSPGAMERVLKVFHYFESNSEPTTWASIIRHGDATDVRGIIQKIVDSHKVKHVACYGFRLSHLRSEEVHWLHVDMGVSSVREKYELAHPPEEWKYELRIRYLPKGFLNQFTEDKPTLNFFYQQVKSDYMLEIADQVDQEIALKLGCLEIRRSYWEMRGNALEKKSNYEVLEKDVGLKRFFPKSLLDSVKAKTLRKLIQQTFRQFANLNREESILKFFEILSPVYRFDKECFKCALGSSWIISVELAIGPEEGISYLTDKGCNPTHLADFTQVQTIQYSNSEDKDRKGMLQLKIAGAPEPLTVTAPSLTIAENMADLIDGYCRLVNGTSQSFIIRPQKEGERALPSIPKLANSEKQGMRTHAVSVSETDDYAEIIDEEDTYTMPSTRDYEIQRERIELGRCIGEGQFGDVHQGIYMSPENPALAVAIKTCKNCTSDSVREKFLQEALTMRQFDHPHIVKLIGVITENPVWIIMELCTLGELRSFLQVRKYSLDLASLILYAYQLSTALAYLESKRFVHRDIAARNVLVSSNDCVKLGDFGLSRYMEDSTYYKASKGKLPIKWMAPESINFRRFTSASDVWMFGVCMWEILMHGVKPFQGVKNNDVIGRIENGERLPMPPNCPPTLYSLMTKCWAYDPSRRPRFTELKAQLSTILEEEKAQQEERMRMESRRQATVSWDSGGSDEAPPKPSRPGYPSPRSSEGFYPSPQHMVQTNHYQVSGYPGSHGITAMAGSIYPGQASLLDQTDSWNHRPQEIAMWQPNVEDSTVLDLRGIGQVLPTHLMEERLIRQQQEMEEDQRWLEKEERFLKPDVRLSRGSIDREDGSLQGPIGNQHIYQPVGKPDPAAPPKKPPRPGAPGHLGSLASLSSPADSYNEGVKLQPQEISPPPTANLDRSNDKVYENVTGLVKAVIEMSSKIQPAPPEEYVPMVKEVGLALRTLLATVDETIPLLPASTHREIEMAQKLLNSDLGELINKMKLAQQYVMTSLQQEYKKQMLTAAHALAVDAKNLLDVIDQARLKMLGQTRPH

SMILES	Ambit profiling: YSK1 [1]	Ambit profiling: RIPK2 [2]	Ambit profiling: LYN [4]	Ambit profiling: MET [6]	Ambit profiling: EPHB2 [8]	Ambit profiling: VEGFR2 [9]	Ambit profiling: PIK3CB [11]	Ambit profiling: CTK [12]	Ambit profiling: PLK1 [13]	Ambit profiling: HUNK [14]	Ambit profiling: CDK5 [15]	Ambit profiling: FAK [16]	Ambit profiling: MERTK [17]	Ambit profiling: TNK1 [18]	Ambit profiling: EPHA7 [19]	Ambit profiling: MARK2 [21]	Ambit profiling: PIP5K2C [22]	Ambit profiling: NEK9 [23]	Ambit profiling: STK36 [24]	also measured
CC(C)N1Cc2nn(C)cc2-c2cnc3[nH]cc(c3c2)-c2cn(nc2C(F)(F)F)CCCC1=O [Compound 45, (Z)-5-isopropyl-31-methyl-13-(trifluoromethyl)-11H,21H,31H-5-aza-2(3,5)-pyrrolo[2,3-b]pyridina-1(4,1),3(4,3)-dipyrazolacyclononaphan-6-one]	38	12	22	11	77	2	100	70	93	16	86	20	0.6	12	59	48	100	100	100	Ambit profiling: EGFR(L861Q) ([3]; compound 1 uM): 28; Ambit profiling: RET(M918T) ([5]; compound 1 uM): 0.2; Ambit profiling: KIT(V559D, T670I) ([7]; compound 1 uM): 8.2; Ambit profiling: FLT3(R834Q) ([10]; compound 1 uM): 8.7; Ambit profiling: LRRK2(G2019S) ([20]; compound 1 uM): 53
COc1c2c(nn1C)CN(C(C)C)C(=O)CCCn1cc(c(C(F)(F)F)n1)-c1c[nH]c3ncc-2cc13 [Compound 50, (Z)-5-isopropyl-35-methoxy-31-methyl-13-(trifluoromethyl)-11H,21H,31H-5-aza-2(3,5)-pyrrolo[2,3-b]pyridina-1(4,1),3(4,3)-dipyrazolacyclononaphan-6-one]	25	11	15	3.8	55	0.8	100	53	100	8	89	5.3	3.5	28	50	100	20	82	100	Ambit profiling: EGFR(L861Q) [3]: 17; Ambit profiling: RET(M918T) [5]: 0.25; Ambit profiling: KIT(V559D, T670I) [7]: 10; Ambit profiling: FLT3(R834Q) [10]: 0; Ambit profiling: LRRK2(G2019S) [20]: 27
